Data as given in patent publication US20040029927A1, “Use of a compound in providing refreshedness on waking and a method for the treatment of grogginess therewith” (The Boots Company PLC, priority 2001, published 2004).
Structures can show the parent of a compound that is named as a salt.

How the values were obtained:
[1] = tested on: patients with temporary sleep disturbance; assay: Clinical trial, Loughborough sleep log: feeling of refreshedness 15 minutes after waking (5-point scale); assay type: in vivo, human
Method: (§1) The efficacy of triprolidine in enabling a patient to feel refreshed or alert upon waking after taking triprolidine prior to sleeptime was investigated using patients with a history of sleep disorders and utilising triprolidine prepared in accordance with example 3.
(§2) A multiple-dose, placebo-controlled, parallel-group, double-blind, randomised study investigating the effects of 2.5 mg and 5 mg triprolidine in patients with temporary sleep disturbance.
(§3) Male and Female candidates aged 18 years and above were recruited to one of five research centres by means of local advertising. Candidates were screened by means of a telephone questionnaire and selected candidates invited for interview at the research centre. Key inclusion criteria used to select candidates for the study were:
(§4) The candidates came to the research centre on Thursday or Friday and were fitted with a wrist actimeter (AW4 from Cambridge Technology) to establish a baseline measure for SDI and were provided with diary cards to record subjective assessments for the Loughborough Sleep Log and the Karolinska Sleepiness Scale. They returned to the investigational site on the Monday and were issued with the study compositions (2.5 mg triprolidine, 5 mg triprolidine or placebo). The investigator telephoned a central randomisation centre where the subject was randomised to a particular treatment group using a dynamic balanced randomisation algorithm. The subject was given three doses of their allocated study medication and instructed to take a single dose of two tablets 20 minutes before they intended to go to sleep on three consecutive evenings, commencing that evening. The diary cards for the Loughborough Sleep Log and Karolinska Sleepiness Scale were asked to be completed on waking.
Candidates were required to complete a questionnaire 15 minutes after awaking on the feeling of refreshedness assessed on a 5-point scale, the Loughborough sleep log.
(§5) In the trial, patients were tested during a seven day period and the results have been analysed for a mean of three days in the middle of this period. The effects of triprolidine at dose level 2.5 mg and 5.0 mg are compared with placebo in table 1.
Generally the treatment groups were well balanced in terms of the demographic data. Unless otherwise mentioned all group data was analysed using ANOVA. In two cases, namely, how the patient felt 15 minutes after awakening in the Loughborough Sleep Log and the Karolinska Sleepiness Scale at 20 minutes, the two variables were analysed using ANCOVA by including the weekend and the mean of Friday/Saturday/Sunday night as a covariate. The method was a closed test procedure (Williams' test). Each of the tests were to be conducted at the 5% level. The analysis of the secondary endpoints was similarly conducted using the Student's t-tests on parameter estimates taken from the analysis of variance model presented above.
(§6) The following is a copy of the “Loughborough sleep log questionnaire” which was used by patients in the study and provided the data for datasets a and b in table 1

[2] = tested on: patients with temporary sleep disturbance; assay: Clinical trial, Loughborough sleep log: last night I slept (quality of sleep, 5-point scale); assay type: in vivo, human
Method: as §1, §2, §3, §4, §5, §6

[3] = tested on: patients with temporary sleep disturbance; assay: Clinical trial, Karolinska 9-point sleepiness scale; assay type: in vivo, human
Method: as §1
(a) Karolinska scale as defined in: Int. J. Neuroscience 52 29-37 (1990); and
as §2, §3, §4
A daytime sleepiness assessment was also made 20 minutes, 2 hours and 4 hours after awaking on the Karolinska 9-point scale, i.e. the sleepiness scale.
Karolinska's sleepiness scale is set out below and the results for placebo, 2.5 and 5.0 mg doses of triprolidine are shown in tables 4 and 5. Table 4 relates to the number of individuals experiencing scales 1, 2 or 3 on the Karolinska scale and table 5 relates to the number of individuals experiencing scales 8 and 9.
Karolinska Sleepiness Scale
This will be completed 20 minutes after awakening and then at 2 hours and 4 hours following the first assessment on days 5, 6, 7 and 8.

[4] = tested on: volunteers; conditions: single doses 10 mg or 20 mg sustained release at bedtime; cited from earlier work

Q: For `Cc1ccc(/C(=C\CN2CCCC2)c2ccccn2)cc1` [TRP.HCl.H2O], which “15 mins after awaking (1- very refreshed 5- very tired), Mean” value (from here on “15 mins after awaking”) ([1]; 2.5 mg, Mean of 3) is on record?
A: 3.24

Q: What about the “15 mins after awaking” value ([1]; 2.5 mg, Mon) of the same compound?
A: 3.33

Q: And the “Awoke Very Refreshed or Refreshed Responses” value ([1]; 2.5 mg, Monday)?
A: 23%

Q: What about the “15 mins after awaking” value ([1]; 2.5 mg, Tues) of the same compound?
A: 3.23

Q: What about the “Awoke Very Refreshed or Refreshed Responses” value ([1]; 2.5 mg, Tuesday) of the same compound?
A: 23%

Q: And the “15 mins after awaking” value ([1]; 2.5 mg, Wed)?
A: 3.18

Q: And the “Awoke Very Refreshed or Refreshed Responses” value ([1]; 2.5 mg, Wednesday)?
A: 25.8%

Q: What about the “feeling of refreshedness 15 minutes after waking versus placebo” value ([1]; 2.5 mg, p<0.05) of the same compound?
A: more refreshed than those on placebo

Q: And the “15 mins after awaking” value ([1]; 5 mg, Mean of 3)?
A: 3.59

Q: What about the “15 mins after awaking” value ([1]; 5 mg, Mon) of the same compound?
A: 3.72

Q: And the “Awoke Very Refreshed or Refreshed Responses” value ([1]; 5 mg, Monday)?
A: 11.5%

Q: What about the “15 mins after awaking” value ([1]; 5 mg, Tues) of the same compound?
A: 3.56

Q: What about the “Awoke Very Refreshed or Refreshed Responses” value ([1]; 5 mg, Tuesday) of the same compound?
A: 8.2%

Q: And the “15 mins after awaking” value ([1]; 5 mg, Wed)?
A: 3.54

Q: What about the “Awoke Very Refreshed or Refreshed Responses” value ([1]; 5 mg, Wednesday) of the same compound?
A: 14.8%

Q: And the “last night I slept (1- extremely well, 5- extremely badly), Mean” value (“last night I slept … Mean” for short) ([2]; 2.5 mg, Mean of 3)?
A: 2.73

Q: And the “last night I slept … Mean” value ([2]; 2.5 mg, Mon)?
A: 2.67

Q: What about the “Last Night I Slept Extremely Well or Very Well Responses” value ([2]; 2.5 mg, Monday) of the same compound?
A: 41.4%

Q: And the “last night I slept … Mean” value ([2]; 2.5 mg, Tues)?
A: 2.71

Q: And the “Last Night I Slept Extremely Well or Very Well Responses” value ([2]; 2.5 mg, Tuesday)?
A: 41.8%

Q: What about the “last night I slept … Mean” value ([2]; 2.5 mg, Wed) of the same compound?
A: 2.81

Q: And the “Last Night I Slept Extremely Well or Very Well Responses” value ([2]; 2.5 mg, Wednesday)?
A: 37.9%

Q: What about the “last night I slept … Mean” value ([2]; 5 mg, Mean of 3) of the same compound?
A: 2.69

Q: What about the “last night I slept … Mean” value ([2]; 5 mg, Mon) of the same compound?
A: 2.49

Q: And the “Last Night I Slept Extremely Well or Very Well Responses” value ([2]; 5 mg, Monday)?
A: 50.9%

Q: And the “last night I slept … Mean” value ([2]; 5 mg, Tues)?
A: 2.93

Q: What about the “Last Night I Slept Extremely Well or Very Well Responses” value ([2]; 5 mg, Tuesday) of the same compound?
A: 28.8%

Q: What about the “last night I slept … Mean” value ([2]; 5 mg, Wed) of the same compound?
A: 2.64

Q: What about the “Last Night I Slept Extremely Well or Very Well Responses” value ([2]; 5 mg, Wednesday) of the same compound?
A: 39.3%

Q: And the “percentage of people feeling alert, very alert or extremely alert on waking versus placebo” value ([3]; 2.5 mg)?
A: greater percentage

Q: And the “percentage of people feeling sleepy, some effort, or very sleepy, great effort to keep awake, on waking versus placebo” value ([3]; 2.5 mg)?
A: lower percentage

Q: And the “residual hangover effects/morning grogginess” value ([3]; 2.5 mg)?
A: no evidence of residual hangover effects/morning grogginess

Q: What about the “I feel (i) sleepy, some effort or (ii) very sleepy, a great effort to keep awake (Karolinska scales 8 and 9)” value (“I feel (i) sleepy” below) ([3]; 2.5 mg, Monday) of the same compound?
A: 11.5%

Q: What about the “I feel extremely alert, very alert or alert (Karolinska scales 1, 2 or 3)” value (shortened to “I feel extremely alert”) ([3]; 2.5 mg, Monday) of the same compound?
A: 21.3%

Q: What about the “I feel (i) sleepy” value ([3]; 2.5 mg, Tuesday) of the same compound?
A: 13.1%

Q: And the “I feel extremely alert” value ([3]; 2.5 mg, Tuesday)?
A: 21.3%

Q: What about the “I feel (i) sleepy” value ([3]; 2.5 mg, Wednesday) of the same compound?
A: 6.5%

Q: What about the “I feel extremely alert” value ([3]; 2.5 mg, Wednesday) of the same compound?
A: 21.0%

Q: What about the “I feel (i) sleepy” value ([3]; 5 mg, Monday) of the same compound?
A: 12.5%

Q: What about the “I feel extremely alert” value ([3]; 5 mg, Monday) of the same compound?
A: 6.3%

Q: What about the “I feel (i) sleepy” value ([3]; 5 mg, Tuesday) of the same compound?
A: 17.5%

Q: And the “I feel extremely alert” value ([3]; 5 mg, Tuesday)?
A: 9.5%

Q: What about the “I feel (i) sleepy” value ([3]; 5 mg, Wednesday) of the same compound?
A: 12.7%

Q: What about the “I feel extremely alert” value ([3]; 5 mg, Wednesday) of the same compound?
A: 17.5%

Q: What about the daytime sleepiness ([3]; either dose (2.5 mg or 5 mg)) of the same compound?
A: lack of daytime sleepiness

Q: What about the “sleep onset latency (time required to fall asleep) compared with placebo” value [4] of the same compound?
A: did not significantly alter

Q: And the “total sleep time compared with placebo” value [4]?
A: no effect

Q: And the “wakefulness during sleep compared with placebo” value [4]?
A: no effect
